Data published in patent US11939312B2, “Enantiomeric entactogen compositions and their use” (Arcadia Medicine, Inc., priority 2021, dated 2024).
Like-named read-outs stand apart in the source and are kept apart here.

Key:
[1] = dog, female and male, p.o.; cited from earlier work
[2] = rat, p.o., cited from earlier work
[3] = doses of 100-125 mg; cited from earlier work
[4] = cited from earlier work
[5] = p.o. in rat (single housing for SR(±)MDMA); cited from earlier work
[6] = Calculated human equivalent dose (HED) of the NOAEL; conditions: for Human Equivalent Dose (HED): NOAEL (human), total dose / Human Equivalent Dose (HED): neurotoxicology NOAEL (human), total dose: assuming a 60 kg human; for NOAEL: human
[7] = cited from earlier work; remark: listed apart in the source
[8] = Subjective report of R-MDMA HCL (Example 11); conditions: oral 250 (±) 10 mg
Experimental: Purpose: To determine the physiological and subjective effects of the hydrochloride salt of R-MDMA (oral administration, 250 (±) 10 mg), supplemented with acetyl-L-carnitine (ALCAR), alpha lipoic acid (ALA), ascorbate to reduce or prevent neurotoxicity.

[9] = repeated administration, 50 mg/kg bw, mice (Curry 2018); cited from earlier work
[10] = rodent models, doses far above allometrically-scaled clinical doses (Curry 2018); cited from earlier work
[11] = Maximum recommended starting dose (MRSD); conditions: expected value
[12] = brain imaging studies, 100 mg, healthy volunteers

CNC(C)Cc1ccc2c(c1)OCO2 (racemic) [racemic MDMA, 3,4-methylenedioxymethamphetamine]
Neurotoxicology NOAEL [1]: 4 mg/kg/week p.o | Neurotoxicology NOAEL ([2]; female): 25 mg/kg/week p.o1 | Neurotoxicology NOAEL ([2]; male): 20 mg/kg/week p.o1. | increase in blood pressure (diastolic) [3]: 14.4-25 mmg | increase in heart rate [3]: 26-30 bpm | onset of subjective effects ([4]; Harris 2002): approximately 45 mins | time of peak subjective effects ([4]; Harris 2002): 1.5 to 2 h | time to decrease to baseline values ([4]; Harris 2002): 5 to 6 h | duration of subjective effects [4, 12]: approximately 4.5 hours | time of peak subjective effects [4, 12]: 1.67 h | duration of effects ([4]; one dose): 4 to 5 h | time of peak drug effects ([4]; patients with PTSD (Mithoefer 2013)): 2 to 5 h | onset of action ([4]; patients with PTSD, after the initial dose (Mithoefer 2013)): 45 to 75 min | duration of effects ([4]; with the booster dose): 5 to 6 h | No adverse effect level (NOAEL) [5]: NOAEL: 100 mg/kg | Human Equivalent Dose (HED): NOAEL (human), total dose [6]: 2080 mg | Human Equivalent Dose (HED): neurotoxicology NOAEL (human), total dose [6]: 342.9 mg* | Human Equivalent Dose (HED): NOAEL (human) ([6]; calculated from NOAEL): 34 mg/kg → | Human Equivalent Dose (HED): neurotoxicology NOAEL (human) ([6]; calculated from neurotoxicology NOAEL): NOAEL (human): 6 mg/kg | time to peak plasma concentration ([7]; doses 100-125 mg, humans): 2 to 3 h | elimination half-life ([7]; similar for doses 50-125 mg): 7 to 9 h

CN[C@H](C)Cc1ccc2c(c1)OCO2 [R-MDMA, (R)-1-(1,3-Benzodioxol-5-yl)-N-methyl-propan-2-amine]
hyperthermia or hypothermia [8]: No noticeable hyperthermia or hypothermia | jaw clenching [8]: No incidence of jaw clenching | onset of noticeable effects ([8]; Subject A): around 40 minutes | time of peak of the experience ([8]; Subject A): around two hours after ingestion | blood pressure ([8]; monitor of low precision, result inconclusive): increased for a short period | heart rate ([8]; short period, from 85 resting): 115-125 | evidence of neurotoxicity [9]: did not show evidence of neurotoxicity | No adverse effect level (NOAEL) [5]: NOAEL: >200 mg/kg | temperature fluctuations [10]: no significant temperature fluctuations | Expected MSRD [11]: >300 mg: | Human Equivalent Dose (HED): NOAEL (human), total dose [6]: >4100 mg | Human Equivalent Dose (HED): neurotoxicology NOAEL (human), total dose [6]: 450 mg* | NOAEL [6]: 7.4 mg/kg | AUC in comparison to S-MDMA ([7]; Fallon 1999, Fitzgerald 1990): increased AUC | half-life in comparison to S-MDMA ([7]; Fallon 1999, Fitzgerald 1990): longer half-life

CN[C@@H](C)Cc1ccc2c(c1)OCO2 [S(+)MDMA, (S)-1-(1,3-Benzodioxol-5-yl)-N-methylpropan-2-amine]
Expected MSRD [11]: 150 mg | Human Equivalent Dose (HED): NOAEL (human), total dose [6]: <2080 mg | Human Equivalent Dose (HED): neurotoxicology NOAEL (human), total dose [6]: 342.9 mg* | NOAEL [6]: 6 mg/kg
